Test results reported in PubChem BioAssay AID330 (DTP/NCI, 2004).
Several values for one entry are separate records, joined by “and”; a condition that tells them apart may be missing. Identical values can stand only once. Inconclusive results and toxic doses are left out. The calls were made as follows: active = survival T/C of 150% or more; inactive = T/C below 125% in these data.

Tested on: P388 leukemia ip, CD2F1 mice, survival T/C
Test: NCI In Vivo Anticancer Drug Screen. Data for tumor model P388 Leukemia (intraperitoneal) in CD2F1 (CDF1) mice
Details: endpoint: median survival time, higher = longer survival
Method in brief: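 Mice carrying the transplanted tumor received test compound or vehicle. Survival was recorded in each group, and the value is the treated-group measurement divided by that of the vehicle-treated control group.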

[1] = dose: 100.0 mg/kg/injection, schedule: Q01DX009 (ip), vehicle: saline with Tween-80
[2] = dose: 200.0 mg/kg/injection, schedule: Q01DX009 (ip), vehicle: saline with Tween-80
[3] = dose: 25.0 mg/kg/injection, schedule: Q01DX009 (ip), vehicle: saline with Tween-80
[4] = dose: 50.0 mg/kg/injection, schedule: Q01DX009 (ip), vehicle: saline with Tween-80
[5] = dose: 60.0 mg/kg/injection, schedule: Q01DX005 (ip), vehicle: Klucel (hydroxypropylcellulose) (HPC)
[6] = dose: 120.0 mg/kg/injection, schedule: Q01DX005 (ip), vehicle: Klucel (hydroxypropylcellulose) (HPC)
[7] = dose: 240.0 mg/kg/injection, schedule: Q01DX005 (ip), vehicle: Klucel (hydroxypropylcellulose) (HPC)
[8] = dose: 50.0 mg/kg/injection, schedule: Q01DX009 (ip), vehicle: Klucel (hydroxypropylcellulose) (HPC)
[9] = dose: 60.0 mg/kg/injection, schedule: Q01DX005 (ip), vehicle: saline with Tween-80
[10] = dose: 120.0 mg/kg/injection, schedule: Q01DX005 (ip), vehicle: saline with Tween-80
[11] = dose: 240.0 mg/kg/injection, schedule: Q01DX005 (ip), vehicle: saline with Tween-80
[12] = dose: 12.5 mg/kg/injection, schedule: Q01DX005 (ip), vehicle: saline
[13] = dose: 25.0 mg/kg/injection, schedule: Q01DX005 (ip), vehicle: saline
[14] = dose: 50.0 mg/kg/injection, schedule: Q01DX005 (ip), vehicle: saline
[15] = dose: 100.0 mg/kg/injection, schedule: Q01DX001 (ip), vehicle: saline
[16] = dose: 200.0 mg/kg/injection, schedule: Q01DX001 (ip), vehicle: saline
[17] = dose: 400.0 mg/kg/injection, schedule: Q01DX001 (ip), vehicle: saline

Measured: T/C

O=C1C=C2OCOC2=C/C1=C/C=C/c1ccccc1
inactive: dose: 2.5 mg/kg/injection, schedule: Q01DX009 (ip), vehicle: saline with Tween-80 102 % of control | dose: 5.0 mg/kg/injection, schedule: Q01DX009 (ip), vehicle: saline with Tween-80 101 % of control | dose: 10.0 mg/kg/injection, schedule: Q01DX009 (ip), vehicle: saline with Tween-80 103 % of control

CC(=O)[C@H]1CC[C@H]2[C@@H]3C[C@H](C)C4=CC(=O)CC[C@]4(C)[C@H]3C(=O)C[C@]12C
inactive: [1] 100 % of control | [2] 109 % of control | dose: 400.0 mg/kg/injection, schedule: Q01DX009 (ip), vehicle: saline with Tween-80 104 % of control

COc1ccc(OCCC(=O)O)cc1
inactive: dose: 1.56 mg/kg/injection, schedule: Q01DX009 (ip), vehicle: saline with Tween-80 109 % of control | dose: 3.12 mg/kg/injection, schedule: Q01DX009 (ip), vehicle: saline with Tween-80 112 % of control | dose: 6.25 mg/kg/injection, schedule: Q01DX009 (ip), vehicle: saline with Tween-80 112 % of control and 86 % of control | [3] 105 % of control | [4] 102 % of control

CC(C)(C)C1NC(C(C)(C)C)N2C(C(C)(C)C)N12 (stereo unspecified)
inactive: dose: 100.0 mg/kg/injection, schedule: Q01DX001 (ip), vehicle: Klucel (hydroxypropylcellulose) (HPC) 100 % of control | dose: 200.0 mg/kg/injection, schedule: Q01DX001 (ip), vehicle: Klucel (hydroxypropylcellulose) (HPC) 90 % of control | dose: 400.0 mg/kg/injection, schedule: Q01DX001 (ip), vehicle: Klucel (hydroxypropylcellulose) (HPC) 102 % of control

CCCCCOc1ccc(C(=O)/C(Br)=C/C(=O)O)cc1
inactive: dose: 12.5 mg/kg/injection, schedule: Q01DX009 (ip), vehicle: saline with Tween-80 104 % of control | [3] 109 % of control | [4] 123 % of control

CC(=O)OC(C(Br)CBr)C(OC(C)=O)C(Br)CBr (stereo unspecified)
inactive: dose: 7.5 mg/kg/injection, schedule: Q01DX009 (ip), vehicle: saline 104 % of control | dose: 15.0 mg/kg/injection, schedule: Q01DX009 (ip), vehicle: saline 110 % of control | dose: 30.0 mg/kg/injection, schedule: Q01DX009 (ip), vehicle: saline 106 % of control

CCOC(=O)c1ccc(NC(CCC(C#N)(C#N)CCC(=NC(C)(C)C)Nc2ccc(C(=O)OCC)cc2)=NC(C)(C)C)cc1
inactive: [4] 95 % of control | [1] 95 % of control | [2] 96 % of control

C=C1C(=O)C2CCN1CC2
inactive: dose: 50.0 mg/kg/injection, schedule: Q01DX005 (ip), vehicle: saline with Tween-80 105 % of control and 110 % of control and 113 % of control | dose: 100.0 mg/kg/injection, schedule: Q01DX005 (ip), vehicle: saline with Tween-80 113 % of control and 116 % of control (2×) | dose: 200.0 mg/kg/injection, schedule: Q01DX005 (ip), vehicle: saline with Tween-80 111 % of control and 116 % of control

CCOC(=O)C1c2cccc(O)c2CCN1C(C)=O (stereo unspecified)
inactive: [5] 100 % of control | [6] 100 % of control | [7] 98 % of control

Cc1cccc2c1CN1CC(=O)NC1=N2
inactive: [8] 103 % of control | dose: 100.0 mg/kg/injection, schedule: Q01DX009 (ip), vehicle: Klucel (hydroxypropylcellulose) (HPC) 97 % of control | dose: 200.0 mg/kg/injection, schedule: Q01DX009 (ip), vehicle: Klucel (hydroxypropylcellulose) (HPC) 86 % of control

OC1CSc2ccccc2-n2cccc21 (stereo unspecified)
inactive: [5] 99 % of control | [6] 106 % of control | [7] 105 % of control

CCN(CC)C(=O)N(O)C1CCCCC1
inactive: [9] 105 % of control | [10] 97 % of control | [11] 103 % of control

O=C1N=NC2NC=CN3C=CC=C1C23 (stereo unspecified)
inactive: [9] 102 % of control | [10] 107 % of control | [11] 110 % of control

CCN(CC)CCCC(C)N(C)CC(C)CCC1=C(C)CCCC1(C)C (stereo unspecified)
inactive: [12] 97 % of control | [13] 101 % of control | [14] 104 % of control

Cc1ccc(S(=O)(=O)c2cncnc2N)cc1
inactive: [15] 101 % of control | [16] 110 % of control | [17] 110 % of control

CCN(CCCNc1cc(OC)cc2cccnc12)C(C)C
inactive: dose: 3.12 mg/kg/injection, schedule: Q01DX005 (ip), vehicle: saline 98 % of control | dose: 6.25 mg/kg/injection, schedule: Q01DX005 (ip), vehicle: saline 92 % of control | [12] 107 % of control

O=C(O)C1Cc2nc[nH]c2CN1CO (stereo unspecified)
inactive: [3] 100 % of control | [4] 109 % of control and 114 % of control | [1] 119 % of control and 120 % of control

CC(C(=O)O)c1ncnn1-c1ccccc1 (stereo unspecified)
inactive: dose: 60.0 mg/kg/injection, schedule: Q01DX005 (ip), vehicle: saline 105 % of control | dose: 120.0 mg/kg/injection, schedule: Q01DX005 (ip), vehicle: saline 104 % of control | dose: 240.0 mg/kg/injection, schedule: Q01DX005 (ip), vehicle: saline 102 % of control

CC(=O)NCCSSCCCCS(=O)O
inactive: [14] 106 % of control and 115 % of control | dose: 100.0 mg/kg/injection, schedule: Q01DX005 (ip), vehicle: saline 118 % of control and 121 % of control | dose: 200.0 mg/kg/injection, schedule: Q01DX005 (ip), vehicle: saline 124 % of control

Cc1ccc(NC(=O)Cc2nc3ccccc3s2)c(C)c1
inactive: [9] 103 % of control | [10] 110 % of control

CN(C)N1C(=O)c2ccccc2NC1c1ccccc1 (stereo unspecified)
inactive: dose: 50.0 mg/kg/injection, schedule: Q01DX005 (ip), vehicle: Klucel (hydroxypropylcellulose) (HPC) 87 % of control | dose: 100.0 mg/kg/injection, schedule: Q01DX005 (ip), vehicle: Klucel (hydroxypropylcellulose) (HPC) 96 % of control | dose: 200.0 mg/kg/injection, schedule: Q01DX005 (ip), vehicle: Klucel (hydroxypropylcellulose) (HPC) 94 % of control

C1CCN2CC3CC(CN4CCCCC34)C2C1 (stereo unspecified)
inactive: dose: 1.87 mg/kg/injection, schedule: Q01DX005 (ip), vehicle: saline 100 % of control | dose: 3.75 mg/kg/injection, schedule: Q01DX005 (ip), vehicle: saline 101 % of control | dose: 6.2 mg/kg/injection, schedule: Q01DX007 (ip), vehicle: carboxymethylcellulose (CMC) 91 % of control | dose: 7.5 mg/kg/injection, schedule: Q01DX005 (ip), vehicle: saline 102 % of control | dose: 12.5 mg/kg/injection, schedule: Q01DX007 (ip), vehicle: carboxymethylcellulose (CMC) 100 % of control | dose: 15.0 mg/kg/injection, schedule: Q01DX005 (ip), vehicle: saline 100 % of control | [13] 92 % of control | dose: 25.0 mg/kg/injection, schedule: Q01DX007 (ip), vehicle: carboxymethylcellulose (CMC) 91 % of control | [14] 99 % of control

Cn1c(N)c(N=Nc2ccccc2Cl)c(=O)n(C)c1=O
inactive: [4] 104 % of control | [1] 99 % of control | [2] 95 % of control

O=S1(=O)C(=C(c2ccccc2)c2ccccc2)S(=O)(=O)c2ccccc21
inactive: [9] 104 % of control | [10] 96 % of control | [11] 102 % of control

CCOC(=O)CN1CCC(C(O)c2cc3ccccc3[nH]2)CC1 (stereo unspecified)
inactive: [15] 106 % of control | [16] 110 % of control | [17] 109 % of control

C[N+](C)(CCS(=O)(=O)[O-])C1CCCCC1
inactive: dose: 50.0 mg/kg/injection, schedule: Q01DX009 (ip), vehicle: saline 98 % of control | dose: 100.0 mg/kg/injection, schedule: Q01DX009 (ip), vehicle: saline 90 % of control | dose: 200.0 mg/kg/injection, schedule: Q01DX009 (ip), vehicle: saline 91 % of control

CC(C)CC(Br)C(=O)NCC(=O)O (stereo unspecified)
inactive: dose: 100.0 mg/kg/injection, schedule: Q04DX003 (ip), vehicle: saline with Tween-80 104 % of control | dose: 200.0 mg/kg/injection, schedule: Q04DX003 (ip), vehicle: saline with Tween-80 100 % of control | dose: 400.0 mg/kg/injection, schedule: Q04DX003 (ip), vehicle: saline with Tween-80 104 % of control

CCOC(=O)CC1CC2c3cc(OC)c(OC)cc3CCN2CC1CC (stereo unspecified)
inactive: dose: 12.5 mg/kg/injection, schedule: Q01DX009 (ip), vehicle: Klucel (hydroxypropylcellulose) (HPC) 108 % of control | dose: 25.0 mg/kg/injection, schedule: Q01DX009 (ip), vehicle: Klucel (hydroxypropylcellulose) (HPC) 114 % of control | [8] 100 % of control and 114 % of control
